According to US6677350B1, “Beta-fluoroethyl thiourea compounds and use” (priority 1999, dated 2004):
Where two headings read alike, the source gives them in different places.

Tested on: M. tuberculosis H37Rv (ATCC 27294)
Test: In vitro anti-tuberculosis screening, BACTEC 460 radiometric system, percent inhibition of growth
Assay type: cell-based, Mycobacterium tuberculosis
Conditions: Mtb H37Rv; for inhibition at 12.5 µg/mL: Mycobacterium tuberculosis

With `COc1ccc(-c2oc3ccc(F)cc3c(=O)c2O)cc1` [Compound 94] the “Activity % Inhibition at 12.5 μg/mL (flavones)” value (12.5 μg/mL, BACTEC 12B medium) was 29%.
For `O=c1cc(-c2ccc(Cl)c([N+](=O)[O-])c2)oc2ccccc12` [Compound 95], the “Activity % Inhibition at 12.5 μg/mL (flavones)” value (12.5 μg/mL, BACTEC 12B medium) was 28%.
`COc1ccc(-c2oc3ccccc3c(=O)c2Br)cc1` [Compound 96] was tested, and the “Activity % Inhibition at 12.5 μg/mL (flavones)” value (12.5 μg/mL, BACTEC 12B medium) was 28%.
For `O=c1cc(-c2ccc(Br)cc2)oc2ccccc12` [Compound 97], the “anti-TB activity in words” value (12.5 μg/mL) was “weakly active or inactive”, the “Activity % Inhibition at 12.5 μg/mL (flavones)” value (12.5 μg/mL, BACTEC 12B medium) was 26% and the “inhibition of the growth of Mtb” value (drug concentration 12.5 μg/mL) was 26%.
In the case of `O=c1cc(-c2ccccc2I)oc2ccccc12` [Compound 100], the “anti-TB activity in words” value (12.5 μg/mL) is reported as “weakly active or inactive”, the “Activity % Inhibition at 12.5 μg/mL (flavones)” value (12.5 μg/mL, BACTEC 12B medium) is reported as 22% and the “inhibition of the growth of Mtb” value (drug concentration 12.5 μg/mL) is reported as 22%.
For `O=c1cc(-c2cccc(I)c2)oc2ccccc12` [Compound 101], the “anti-TB activity in words” value (12.5 μg/mL) was “weakly active or inactive” and the “Activity % Inhibition at 12.5 μg/mL (flavones)” value (12.5 μg/mL, BACTEC 12B medium) was 22%.
In the case of `O=c1cc(-c2ccccc2)oc2cc(I)ccc12` [Compound 102], the “anti-TB activity in words” value (12.5 μg/mL) is reported as “weakly active or inactive” and the “Activity % Inhibition at 12.5 μg/mL (flavones)” value (12.5 μg/mL, BACTEC 12B medium) is reported as 20%.
In the case of `COc1ccc2c(=O)c(Br)c(-c3ccc(Cl)cc3)oc2c1` [Compound 103], the “Activity % Inhibition at 12.5 μg/mL (flavones)” value (12.5 μg/mL, BACTEC 12B medium) is reported as 19%.
With `O=c1cc(-c2ccc(O)cc2)oc2ccccc12` [Compound 104] the “Activity % Inhibition at 12.5 μg/mL (flavones)” value (12.5 μg/mL, BACTEC 12B medium) was 18%.
In the case of `O=c1cc(-c2ccccc2)oc2cc(Br)ccc12` [Compound 106], the “anti-TB activity in words” value (12.5 μg/mL) is reported as “weakly active or inactive” and the “Activity % Inhibition at 12.5 μg/mL (flavones)” value (12.5 μg/mL, BACTEC 12B medium) is reported as 15%.
With `COc1ccc(-c2cc(=O)c3cc(I)ccc3o2)cc1` [Compound 107] the “Activity % Inhibition at 12.5 μg/mL (flavones)” value (12.5 μg/mL, BACTEC 12B medium) was 15%.
`O=c1c(Br)c(-c2ccccc2)oc2ccccc12` [Compound 108] was tested, and the “Activity % Inhibition at 12.5 μg/mL (flavones)” value (12.5 μg/mL, BACTEC 12B medium) was 13%.
In the case of `COc1ccc(-c2cc(=O)c3c(OC)cc(OC)cc3o2)cc1` [Compound 109], the “Activity % Inhibition at 12.5 μg/mL (flavones)” value (12.5 μg/mL, BACTEC 12B medium) is reported as 12%.
For `O=C(c1ccccc1)c1ccc2c(=O)c(C(=O)c3ccccc3)c(-c3ccccc3)oc2c1` [Compound 110], the “Activity % Inhibition at 12.5 μg/mL (flavones)” value (12.5 μg/mL, BACTEC 12B medium) was 12%.
In the case of `O=c1cc(-c2ccccc2)oc2ccc(F)cc12` [Compound 112], the “anti-TB activity in words” value (12.5 μg/mL) is reported as “weakly active or inactive” and the “Activity % Inhibition at 12.5 μg/mL (flavones)” value (12.5 μg/mL, BACTEC 12B medium) is reported as 7%.
With `COc1ccc(-c2oc3c(I)cccc3c(=O)c2O)cc1` [Compound 113] the “Activity % Inhibition at 12.5 μg/mL (flavones)” value (12.5 μg/mL, BACTEC 12B medium) was 6%.
In the case of `O=c1cc(-c2ccccc2)oc2c(I)cccc12` [Compound 114], the “anti-TB activity in words” value (12.5 μg/mL) is reported as “weakly active or inactive” and the “Activity % Inhibition at 12.5 μg/mL (flavones)” value (12.5 μg/mL, BACTEC 12B medium) is reported as 5%.
With `COc1ccc(-c2cc(=O)c3cc(C(=O)O)ccc3o2)cc1` [Compound 115] the “Activity % Inhibition at 12.5 μg/mL (flavones)” value (12.5 μg/mL, BACTEC 12B medium) was 2%.
For `O=c1cc(-c2ccccc2O)oc2ccccc12` [Compound 116], the “Activity % Inhibition at 12.5 μg/mL (flavones)” value (12.5 μg/mL, BACTEC 12B medium) was 1%.
In the case of `COc1ccc2c(=O)cc(-c3ccccc3)oc2c1` [Compound 117], the “Activity % Inhibition at 12.5 μg/mL (flavones)” value (12.5 μg/mL, BACTEC 12B medium) is reported as 0%.
`COc1ccc(-c2cc(=O)c3ccc(F)cc3o2)cc1` [Compound 118] was tested, and the “Activity % Inhibition at 12.5 μg/mL (flavones)” value (12.5 μg/mL, BACTEC 12B medium) was 0%.
`COc1ccc(-c2cc(=O)c3ccc(OC)cc3o2)cc1` [Compound 119] was tested, and the “Activity % Inhibition at 12.5 μg/mL (flavones)” value (12.5 μg/mL, BACTEC 12B medium) was 0%.
For `O=c1cc(-c2cccc(Cl)c2)oc2ccccc12` [Compound 121], the “anti-TB activity in words” value (12.5 μg/mL) was “weakly active or inactive”, the “Activity % Inhibition at 12.5 μg/mL (flavones)” value (12.5 μg/mL, BACTEC 12B medium) was 0% and the “inhibition of the growth of Mtb” value (drug concentration 12.5 μg/mL) was 0%.
In the case of `O=c1cc(-c2ccccc2)oc2cc(Cl)ccc12` [Compound 122], the “anti-TB activity in words” value (12.5 μg/mL) is reported as “weakly active or inactive” and the “Activity % Inhibition at 12.5 μg/mL (flavones)” value (12.5 μg/mL, BACTEC 12B medium) is reported as 0%.
With `O=c1cc(-c2ccccc2)oc2ccc(Br)cc12` [Compound 123] the “anti-TB activity in words” value (12.5 μg/mL) was “weakly active or inactive” and the “Activity % Inhibition at 12.5 μg/mL (flavones)” value (12.5 μg/mL, BACTEC 12B medium) was 0%.
For `O=c1cc(-c2ccccc2)oc2ccc(I)cc12` [Compound 124], the “anti-TB activity in words” value (12.5 μg/mL) was “weakly active or inactive” and the “Activity % Inhibition at 12.5 μg/mL (flavones)” value (12.5 μg/mL, BACTEC 12B medium) was 0%.
In the case of `COc1ccc(-c2cc(=O)c3c(OC)cc(OC)c(I)c3o2)cc1` [Compound 125], the “Activity % Inhibition at 12.5 μg/mL (flavones)” value (12.5 μg/mL, BACTEC 12B medium) is reported as 0%.
`COc1cc(OC)c2c(=O)cc(-c3ccc(OC)c(I)c3)oc2c1` [Compound 126] was tested, and the “Activity % Inhibition at 12.5 μg/mL (flavones)” value (12.5 μg/mL, BACTEC 12B medium) was 0%.
For `O=c1c(I)c(-c2ccccc2)oc2ccccc12` [Compound 127], the “anti-TB activity in words” value (12.5 μg/mL) was “weakly active or inactive” and the “Activity % Inhibition at 12.5 μg/mL (flavones)” value (12.5 μg/mL, BACTEC 12B medium) was 0%.
For `COc1ccc(-c2cc(=O)c3ccc(I)cc3o2)cc1` [Compound 128], the “Activity % Inhibition at 12.5 μg/mL (flavones)” value (12.5 μg/mL, BACTEC 12B medium) was 0%.
With `COc1ccc(-c2oc3ccc(C(=O)O)cc3c(=O)c2O)cc1` [Compound 130] the “Activity % Inhibition at 12.5 μg/mL (flavones)” value (12.5 μg/mL, BACTEC 12B medium) was 0%.
With `COc1ccc(-c2oc3cc(OC)cc(OC)c3c(=O)c2Br)cc1` [Compound 131] the “Activity % Inhibition at 12.5 μg/mL (flavones)” value (12.5 μg/mL, BACTEC 12B medium) was 0%.
For `COc1cc(OC)c2c(=O)cc(-c3ccc(O)cc3)oc2c1` [Compound 132], the “Activity % Inhibition at 12.5 μg/mL (flavones)” value (12.5 μg/mL, BACTEC 12B medium) was 0%.
With `O=C1CC(c2cccc(Br)c2)Oc2ccccc21` (stereo not shown) [Compound 134] the “Activity % Inhibition at 12.5 μg/mL (flavanones)” value (12.5 μg/mL, BACTEC 12B medium) was 73% and the “inhibition of the growth of Mtb” value (drug concentration 12.5 μg/mL) was 73%.
For `O=C1c2ccccc2OC(c2cccc(Cl)c2)C1O` (stereo not shown) [Compound 135], the “Activity % Inhibition at 12.5 μg/mL (flavanones)” value (12.5 μg/mL, BACTEC 12B medium) was 63%.
Work on `O=C1CC(c2ccccc2)Oc2cc(Br)ccc21` (stereo not shown) [Compound 136, 7-bromo-flavanone] yielded an inhibition at 12.5 µg/mL (12.5 μg/mL, BACTEC 12B medium, read-out: Activity % Inhibition at 12.5 μg/mL (flavanones)) of 53% and an inhibition at 12.5 µg/mL (drug concentration 12.5 μg/mL, read-out: inhibition of the growth of Mtb) of 53%.
For `COc1ccc2c(c1)OC(c1ccc(Cl)cc1)CC2=O` (stereo not shown) [Compound 137], the “Activity % Inhibition at 12.5 μg/mL (flavanones)” value (12.5 μg/mL, BACTEC 12B medium) was 48%.
In the case of `O=C1CC(c2ccccc2)Oc2ccc(Cl)cc21` (stereo not shown) [Compound 138], the “Activity % Inhibition at 12.5 μg/mL (flavanones)” value (12.5 μg/mL, BACTEC 12B medium) is reported as 30%.
`O=C1CC(c2ccccc2)Oc2ccc(I)cc21` (stereo not shown) [Compound 139] was tested, and the “Activity % Inhibition at 12.5 μg/mL (flavanones)” value (12.5 μg/mL, BACTEC 12B medium) was 27%.
For `COc1cc(OC)c2c(c1)OC(c1cc(OC)c(OC)c(OC)c1)C(Br)(Br)C2=O` (stereo not shown) [Compound 140], the “Activity % Inhibition at 12.5 μg/mL (flavanones)” value (12.5 μg/mL, BACTEC 12B medium) was 16%.
With `O=C1CC(c2ccccc2)Oc2cc(I)ccc21` (stereo not shown) [Compound 141] the “Activity % Inhibition at 12.5 μg/mL (flavanones)” value (12.5 μg/mL, BACTEC 12B medium) was 9%.
In the case of `O=C1CC(c2ccccc2)Oc2ccc(Br)cc21` (stereo not shown) [Compound 142], the “Activity % Inhibition at 12.5 μg/mL (flavanones)” value (12.5 μg/mL, BACTEC 12B medium) is reported as 8%.
In the case of `O=C1CC(c2ccccc2)Oc2cc(F)ccc21` (stereo not shown) [Compound 143], the “Activity % Inhibition at 12.5 μg/mL (flavanones)” value (12.5 μg/mL, BACTEC 12B medium) is reported as 7%.
`COc1cc(OC)c2c(c1)OC(c1cc(OC)c(OC)c(OC)c1)CC2=O` (stereo not shown) [Compound 144] was tested, and the “Activity % Inhibition at 12.5 μg/mL (flavanones)” value (12.5 μg/mL, BACTEC 12B medium) was 0%.
With `COc1ccc(C2CC(=O)c3cc(C(=O)O)ccc3O2)cc1` (stereo not shown) [Compound 145] the “Activity % Inhibition at 12.5 μg/mL (flavanones)” value (12.5 μg/mL, BACTEC 12B medium) was 0%.
In the case of `O=C(O)c1ccc2c(c1)C(=O)CC(c1ccccc1)O2` (stereo not shown) [Compound 146], the “Activity % Inhibition at 12.5 μg/mL (flavanones)” value (12.5 μg/mL, BACTEC 12B medium) is reported as 0%.
`COc1ccc2c(c1)OC(c1cccc([N+](=O)[O-])c1)CC2=O` (stereo not shown) [Compound 147] was tested, and the “Activity % Inhibition at 12.5 μg/mL (flavanones)” value (12.5 μg/mL, BACTEC 12B medium) was 0%.
`O=C1c2ccccc2OC(c2ccccc2)C1(Br)Br` (stereo not shown) [Compound 148] was tested, and the “Activity % Inhibition at 12.5 μg/mL (flavanones)” value (12.5 μg/mL, BACTEC 12B medium) was 0%.
With `COc1ccc(C2CC(=O)c3ccc(I)cc3O2)cc1` (stereo not shown) [Compound 149] the “Activity % Inhibition at 12.5 μg/mL (flavanones)” value (12.5 μg/mL, BACTEC 12B medium) was 0%.
In the case of `COc1ccc(-c2cc(=O)c3c(OC)cc(OC)c([C@@H]4C(=O)c5c(OC)cc(OC)cc5O[C@H]4c4ccc(OC)cc4)c3o2)cc1` [Compound 152, Volkensiflavone hexamethylether], the “Activity % Inhibition at 12.5 μg/mL (biflavonoids)” value (12.5 μg/mL, BACTEC 12B medium) is reported as 95% and the “inhibition of the growth of Mtb” value (drug concentration 12.5 μg/mL) is reported as 95%.
For `COc1ccc([C@@H]2CC(=O)c3c(OC)cc(OC)c([C@H]4C(=O)c5c(OC)cc(OC)cc5O[C@@H]4c4ccc(OC)cc4)c3O2)cc1` [Compound 153, GB-1a hexamethylether], the “Activity % Inhibition at 12.5 μg/mL (biflavonoids)” value (12.5 μg/mL, BACTEC 12B medium) was 87% and the “inhibition of the growth of Mtb” value (drug concentration 12.5 μg/mL) was 87%.
